For this test, the system named is MV-4-11 cells. Briefly: Gene expression microarray analysis (Affymetrix PrimeView) and GSEA. It counts as cell-based, human. Also on record: RFU PODN (11730768_x_at) / Fold change /veh PODN (11730768_x_at) / RFU LINC00158 (11744669_a_at) / Fold change /veh LINC00158 (11744669_a_at) / RFU DUSP10 (11751237_a_at) / Fold change /veh DUSP10 (11751237_a_at) / RFU ID3 (11757404_x_at) / Fold change /veh ID3 (11757404_x_at) / RFU PLEKHG5 (11737974_s_at) / Fold change /veh PLEKHG5 (11737974_s_at) / RFU LRRC4B (11730491_at) / Fold change /veh LRRC4B (11730491_at) / RFU GIMAP4 (11747438_a_at) / Fold change /veh GIMAP4 (11747438_a_at) / RFU KRT8 (11758183_x_at) / Fold change /veh KRT8 (11758183_x_at) / RFU CNN1 (11734310_a_at) / Fold change /veh CNN1 (11734310_a_at) / RFU VPS37D (11726825_at) / Fold change /veh VPS37D (11726825_at) / RFU C10orf10 (11716522_x_at) / Fold change /veh C10orf10 (11716522_x_at) / RFU KIR2DL2 /// KIR2DL4 /// KIR2DL5A /// KIR2DL5B /// KIR2DS1 /// KIR2DS2 /// KIR2DS3 /// KIR2DS4 /// KIR3DL3 /// KIR3DL3 /// KIR3DS1 (11738374_at) / Fold change /veh KIR2DL2 /// KIR2DL4 /// KIR2DL5A /// KIR2DL5B /// KIR2DS1 /// KIR2DS2 /// KIR2DS3 /// KIR2DS4 /// KIR3DL3 /// KIR3DL3 /// KIR3DS1 (11738374_at) / RFU C1QL1 (11718748_at) / Fold change /veh C1QL1 (11718748_at) / RFU TMPRSS4 (11747572_a_at) / Fold change /veh TMPRSS4 (11747572_a_at) / RFU HAMP (11756126_x_at) / Fold change /veh HAMP (11756126_x_at) / RFU RNFT2 (11725882_a_at) / Fold change /veh RNFT2 (11725882_a_at) / RFU NR4A2 (11747474_a_at) / Fold change /veh NR4A2 (11747474_a_at) / RFU ABCC12 (11746883_a_at) / Fold change /veh ABCC12 (11746883_a_at) / RFU TMEM136 (11760407_x_at) / Fold change /veh TMEM136 (11760407_x_at) / RFU CLDN22 /// WWC2 (11732394_at) / Fold change /veh CLDN22 /// WWC2 (11732394_at) / RFU HLA-DPB1 (11760878_x_at) / Fold change /veh HLA-DPB1 (11760878_x_at) / RFU SPINT1 (11716480_a_at) / Fold change /veh SPINT1 (11716480_a_at) / RFU GAP43 (11754022_s_at) / Fold change /veh GAP43 (11754022_s_at) / RFU A4GNT (11735810_at) / Fold change /veh A4GNT (11735810_at) / RFU PRB3 (11715151_x_at) / Fold change /veh PRB3 (11715151_x_at) / RFU TUBB4B (11761932_at) / Fold change /veh TUBB4B (11761932_at) / RFU CAPN14 (11732068_a_at) / Fold change /veh CAPN14 (11732068_a_at) / RFU TMCC2 (11721928_a_at) / Fold change /veh TMCC2 (11721928_a_at) / RFU IRGQ (11745062_a_at) / Fold change /veh IRGQ (11745062_a_at) / RFU FAM174B (11720279_a_at) / Fold change /veh FAM174B (11720279_a_at) / RFU TMPRSS4 (11748680_a_at) / Fold change /veh TMPRSS4 (11748680_a_at) / RFU FAM212B (11763350_a_at) / Fold change /veh FAM212B (11763350_a_at) / RFU PLEKHG5 (11743358_a_at) / Fold change /veh PLEKHG5 (11743358_a_at) / RFU ZSCAN30 (11745921_a_at) / Fold change /veh ZSCAN30 (11745921_a_at) / RFU CMKLR1 (11741424_a_at) / Fold change /veh CMKLR1 (11741424_a_at) / RFU LOC101060620 /// MAPK8IP1 (11723275_at) / Fold change /veh LOC101060620 /// MAPK8IP1 (11723275_at) / RFU SPTSSB (11747773_x_at) / Fold change /veh SPTSSB (11747773_x_at) / RFU PRSS12 (11739890_at) / Fold change /veh PRSS12 (11739890_at) / RFU BIN1 (11741810_x_at) / Fold change /veh BIN1 (11741810_x_at) / RFU WNT11 (11732464_a_at) / Fold change /veh WNT11 (11732464_a_at) / RFU C10orf10 (11716521_a_at) / Fold change /veh C10orf10 (11716521_a_at) / RFU C5orf56 (11738089_at) / Fold change /veh C5orf56 (11738089_at) / RFU CYB561 (11721691_x_at) / Fold change /veh CYB561 (11721691_x_at) / RFU ANKRD19P (11752326_a_at) / Fold change /veh ANKRD19P (11752326_a_at) / RFU OR2T12 /// OR2T33 /// OR2T8 (11738714_s_at) / Fold change /veh OR2T12 /// OR2T33 /// OR2T8 (11738714_s_at) / RFU VCAN (11748164_a_at) / Fold change /veh VCAN (11748164_a_at) / RFU JSRP1 (11732532_at) / Fold change /veh JSRP1 (11732532_at) / RFU KRTAP10-11 (11738290_x_at) / Fold change /veh KRTAP10-11 (11738290_x_at) / RFU MYO3A (11730013_a_at) / Fold change /veh MYO3A (11730013_a_at) / RFU EBF3 (11725865_a_at) / Fold change /veh EBF3 (11725865_a_at) / RFU CAMK2N1 (11719241_x_at) / Fold change /veh CAMK2N1 (11719241_x_at) / RFU C5orf56 (11738088_a_at) / Fold change /veh C5orf56 (11738088_a_at) / RFU OLFML3 (11715873_a_at) / Fold change /veh OLFML3 (11715873_a_at) / RFU LOC100653217 /// NTM (11731650_a_at) / Fold change /veh LOC100653217 /// NTM (11731650_a_at) / RFU MAPK11 (11762145_a_at) / Fold change /veh MAPK11 (11762145_a_at) / RFU FIZ1 (11724087_x_at) / Fold change /veh FIZ1 (11724087_x_at) / RFU OASL (11726364_x_at) / Fold change /veh OASL (11726364_x_at) / RFU SOX15 (11748057_x_at) / Fold change /veh SOX15 (11748057_x_at) / RFU CD79A (11719716_a_at) / Fold change /veh CD79A (11719716_a_at) / RFU HIST1H1D (11736915_at) / Fold change /veh HIST1H1D (11736915_at) / RFU CASKIN2 (11723855_a_at) / Fold change /veh CASKIN2 (11723855_a_at) / RFU LOC730098 (11760151_x_at) / Fold change /veh LOC730098 (11760151_x_at) / RFU OR4N2 (11742367_at) / Fold change /veh OR4N2 (11742367_at) / RFU PRRT2 (11749266_a_at) / Fold change /veh PRRT2 (11749266_a_at) / RFU SNX32 (11753110_a_at) / Fold change /veh SNX32 (11753110_a_at) / RFU CDHR5 (11726645_a_at) / Fold change /veh CDHR5 (11726645_a_at) / RFU RCAN1 (11760418_a_at) / Fold change /veh RCAN1 (11760418_a_at) / RFU FAM167A (11723789_a_at) / Fold change /veh FAM167A (11723789_a_at) / RFU FAM26E (11764081_at) / Fold change /veh FAM26E (11764081_at) / RFU ISYNA1 (11749810_s_at) / Fold change /veh ISYNA1 (11749810_s_at) / RFU ACY1 (11761880_at) / Fold change /veh ACY1 (11761880_at) / RFU 11764098_at / Fold change /veh 11764098_at / RFU SAMD14 (11745864_x_at) / Fold change /veh SAMD14 (11745864_x_at) / RFU NPB (11741838_a_at) / Fold change /veh NPB (11741838_a_at) / RFU TMPRSS6 (11731388_a_at) / Fold change /veh TMPRSS6 (11731388_a_at) / RFU KRTAP10-2 (11738614_at) / Fold change /veh KRTAP10-2 (11738614_at) / RFU ARHGAP8 /// PRR5-ARHGAP8 (11727945_x_at) / Fold change /veh ARHGAP8 /// PRR5-ARHGAP8 (11727945_x_at) / RFU KRTAP5-7 /// NADSYN1 (11734609_at) / Fold change /veh KRTAP5-7 /// NADSYN1 (11734609_at) / RFU RASL12 (11751679_a_at) / Fold change /veh RASL12 (11751679_a_at) / RFU CDKN2B (11736163_a_at) / Fold change /veh CDKN2B (11736163_a_at) / RFU PRF1 (11729649_at) / Fold change /veh PRF1 (11729649_at) / RFU, ZNF638 /// ZNF638-IT1 / Fold change vs veh, ZNF638 /// ZNF638-IT1 / RFU, PANK3 / Fold change vs veh, PANK3 / RFU, SH3YL1 / Fold change vs veh, SH3YL1 / RFU, ZEB2 / Fold change vs veh, ZEB2 / RFU, NRIP1 / Fold change vs veh, NRIP1 / RFU, PTTG1IP / Fold change vs veh, PTTG1IP / RFU, CAPN2 / Fold change vs veh, CAPN2 / RFU, MED14 / Fold change vs veh, MED14 / RFU, SNORA58 / Fold change vs veh, SNORA58 / RFU, C1orf63 / Fold change vs veh, C1orf63 / RFU, LRRFIP1 / Fold change vs veh, LRRFIP1 / RFU, NDUFAF7 / Fold change vs veh, NDUFAF7 / RFU, SLC12A2 / Fold change vs veh, SLC12A2 / RFU, IBTK / Fold change vs veh, IBTK / RFU, ESF1 / Fold change vs veh, ESF1 / Fold change vs veh, TMEM50B / RFU, TAOK1 / Fold change vs veh, TAOK1 / RFU, ACBD3 / Fold change vs veh, ACBD3 / RFU, TMA16 / Fold change vs veh, TMA16 / RFU, RWDD3 / Fold change vs veh, RWDD3 / RFU, BCAT1 / Fold change vs veh, BCAT1 / RFU, EDEM3 / Fold change vs veh, EDEM3 / RFU, TMEM33 / Fold change vs veh, TMEM33 / RFU, WDR75 / Fold change vs veh, WDR75 / RFU, AHCTF1 / Fold change vs veh, AHCTF1 / RFU, TFRC / Fold change vs veh, TFRC / RFU, ZDHHC17 / Fold change vs veh, ZDHHC17 / RFU, NOM1 / Fold change vs veh, NOM1 / RFU, ARL8B / Fold change vs veh, ARL8B / RFU, ZBTB11 / Fold change vs veh, ZBTB11 / RFU, TAMM41 / Fold change vs veh, TAMM41 / RFU, KIAA1704 /// LOC100996395 / Fold change vs veh, KIAA1704 /// LOC100996395 / RFU, ING1 / Fold change vs veh, ING1 / RFU, TRMT61B / Fold change vs veh, TRMT61B / RFU, FUBP3 / Fold change vs veh, FUBP3 / RFU, TP53 / Fold change vs veh, TP53 / RFU, TNKS2 / Fold change vs veh, TNKS2 / RFU, ZFP14 / Fold change vs veh, ZFP14 / RFU, ACTR2 / Fold change vs veh, ACTR2 / RFU, PPP3R1 / Fold change vs veh, PPP3R1 / RFU, PIK3R1 / Fold change vs veh, PIK3R1 / RFU, HNRNPA1 / Fold change vs veh, HNRNPA1 / RFU, RNF170 / Fold change vs veh, RNF170 / RFU, ZNF28 / Fold change vs veh, ZNF28 / RFU, RNGTT / Fold change vs veh, RNGTT / RFU, OGT / Fold change vs veh, OGT / RFU, BRD1 / Fold change vs veh, BRD1 / RFU, MARS / Fold change vs veh, MARS / RFU, ZNF655 / Fold change vs veh, ZNF655 / RFU, FAHD1 / Fold change vs veh, FAHD1 / RFU, BDP1 / Fold change vs veh, BDP1 / RFU, LRRCC1 / Fold change vs veh, LRRCC1 / RFU, ARID1A / Fold change vs veh, ARID1A / RFU, ZNF146 / Fold change vs veh, ZNF146 / RFU, ZNF330 / Fold change vs veh, ZNF330 / RFU, GPN3 / Fold change vs veh, GPN3 / RFU, C9orf123 / Fold change vs veh, C9orf123 / RFU, N4BP2L2 / Fold change vs veh, N4BP2L2 / RFU, ARFIP1 / Fold change vs veh, ARFIP1 / RFU, FAM179B / Fold change vs veh, FAM179B / RFU, BCL10 / Fold change vs veh, BCL10 / RFU, UHRF1BP1L / Fold change vs veh, UHRF1BP1L / RFU, BET1 / Fold change vs veh, BET1 / RFU, CNOT2 / Fold change vs veh, CNOT2 / RFU, ZNF268 / Fold change vs veh, ZNF268 / Fold change vs veh, ZNF507 / RFU, DGCR2 / Fold change vs veh, DGCR2 / RFU, WDSUB1 / Fold change vs veh, WDSUB1 / Fold change vs veh, HSP90B1 /// MIR3652 / RFU, ADSS / Fold change vs veh, ADSS / RFU, GK / Fold change vs veh, GK / RFU, ZNF148 / Fold change vs veh, ZNF148 / RFU, TAF9 / Fold change vs veh, TAF9 / RFU, SLC1A5 / Fold change vs veh, SLC1A5 / RFU, SLMO2 / Fold change vs veh, SLMO2 / RFU, ABCC4 / Fold change vs veh, ABCC4 / RFU, LOC101060439 /// RAP1B / Fold change vs veh, LOC101060439 /// RAP1B / RFU, RFX7 / Fold change vs veh, RFX7 / RFU, GTPBP10 / Fold change vs veh, GTPBP10 / RFU, CNEP1R1 / Fold change vs veh, CNEP1R1 / RFU, BIVM-ERCC5 /// ERCC5 / Fold change vs veh, BIVM-ERCC5 /// ERCC5 / RFU, ILF3 / Fold change vs veh, ILF3 / RFU 11762660_at / Fold change /veh 11762660_at / RFU VCAN (11757783_s_at) / Fold change /veh VCAN (11757783_s_at) / RFU DDX43 (11728927_at) / Fold change /veh DDX43 (11728927_at) / RFU KRT8 (11758188_x_at) / Fold change /veh KRT8 (11758188_x_at) / RFU NKD1 (11759106_at) / Fold change /veh NKD1 (11759106_at) / RFU SRD5A1 (11742802_a_at) / Fold change /veh SRD5A1 (11742802_a_at) / RFU TPSAB1 /// TPSB2 (11721975_s_at) / Fold change /veh TPSAB1 /// TPSB2 (11721975_s_at) / RFU GSTM3 (11746129_a_at) / Fold change /veh GSTM3 (11746129_a_at) / RFU IL23R (11737362_x_at) / Fold change /veh IL23R (11737362_x_at) / RFU TMEM51 (11727254_a_at) / Fold change /veh TMEM51 (11727254_a_at) / RFU PIWIL2 (11732686_x_at) / Fold change /veh PIWIL2 (11732686_x_at) / RFU ORM1 (11744905_x_at) / Fold change /veh ORM1 (11744905_x_at) / RFU CCDC152 (11743942_at) / Fold change /veh CCDC152 (11743942_at) / RFU ECM1 (11717891_a_at) / Fold change /veh ECM1 (11717891_a_at) / RFU IL23R (11748794_a_at) / Fold change /veh IL23R (11748794_a_at) / RFU TNFAIP8L3 (11732012_x_at) / Fold change /veh TNFAIP8L3 (11732012_x_at) / RFU MBOAT4 (11741988_at) / Fold change /veh MBOAT4 (11741988_at) / RFU 11764193_at / Fold change /veh 11764193_at / RFU TMEM53 (11763286_at) / Fold change /veh TMEM53 (11763286_at) / RFU MAGEB2 (11727129_at) / Fold change /veh MAGEB2 (11727129_at) / RFU TMEM200A (11744735_a_at) / Fold change /veh TMEM200A (11744735_a_at) / RFU CCDC152 (11751479_a_at) / Fold change /veh CCDC152 (11751479_a_at) / RFU FAM211A (11726209_a_at) / Fold change /veh FAM211A (11726209_a_at) / RFU RGS16 (11746705_a_at) / Fold change /veh RGS16 (11746705_a_at) / RFU VCAN (11755009_s_at) / Fold change /veh VCAN (11755009_s_at) / RFU RHOB (11743442_s_at) / Fold change /veh RHOB (11743442_s_at) / RFU RGS16 (11720943_a_at) / Fold change /veh RGS16 (11720943_a_at) / RFU RGS16 (11720944_at) / Fold change /veh RGS16 (11720944_at) / RFU, VPS4B / Fold change vs veh, VPS4B / RFU, CREB1 / Fold change vs veh, CREB1 / RFU, DNAJC13 / Fold change vs veh, DNAJC13 / RFU, GNAQ / Fold change vs veh, GNAQ / RFU, CDK5R1 / Fold change vs veh, CDK5R1 / RFU, ZRANB3 / Fold change vs veh, ZRANB3 / RFU, CUL4A / Fold change vs veh, CUL4A / RFU, CCNY / Fold change vs veh, CCNY / RFU, UFL1 / Fold change vs veh, UFL1 / RFU, COG3 / Fold change vs veh, COG3 / RFU, DIAPH2 / Fold change vs veh, DIAPH2 / RFU, SKA2 / Fold change vs veh, SKA2 / RFU, AFF3 / Fold change vs veh, AFF3 / RFU, LMF1 / Fold change vs veh, LMF1 / RFU, IPO11 / Fold change vs veh, IPO11 / RFU, DFFB / Fold change vs veh, DFFB / RFU, FOXP1 / Fold change vs veh, FOXP1 / RFU, CARD8 / Fold change vs veh, CARD8 / RFU, STRN3 / Fold change vs veh, STRN3 / RFU, ADK / Fold change vs veh, ADK / RFU, RASSF2 / Fold change vs veh, RASSF2 / RFU, WIPF1 / Fold change vs veh, WIPF1 / RFU, LARP1B / Fold change vs veh, LARP1B / RFU, RASA1 / Fold change vs veh, RASA1 / RFU, RB1 / Fold change vs veh, RB1 / RFU, PPFIA1 / Fold change vs veh, PPFIA1 / RFU, MAT2A / Fold change vs veh, MAT2A / RFU, CCT5 / Fold change vs veh, CCT5 / RFU, WDR92 / Fold change vs veh, WDR92 / RFU, CUX1 / Fold change vs veh, CUX1 / RFU, TTC7A / Fold change vs veh, TTC7A / RFU, TMEM135 / Fold change vs veh, TMEM135 / RFU, DEPTOR / Fold change vs veh, DEPTOR / RFU, CPM / Fold change vs veh, CPM / RFU, DNAJB6 / Fold change vs veh, DNAJB6 / RFU, CACNA2D3 / Fold change vs veh, CACNA2D3 / RFU, DTX4 / Fold change vs veh, DTX4 / RFU, TFCP2 / Fold change vs veh, TFCP2 / RFU, GMCL1 /// GMCL1P1 / Fold change vs veh, GMCL1 /// GMCL1P1 / RFU, AEBP2 / Fold change vs veh, AEBP2 / RFU, SNHG1 /// SNORD22 /// SNORD25 /// SNORD26 /// SNORD27 /// SNORD28 /// SNORD29 /// SNORD31 / Fold change vs veh, SNHG1 /// SNORD22 /// SNORD25 /// SNORD26 /// SNORD27 /// SNORD28 /// SNORD29 /// SNORD31 / Fold change (Aza/veh), C12orf56 (ProbeSet 11735607_a_at) / Fold change (ACY-1035/veh), C12orf56 (ProbeSet 11735607_a_at) / Fold change (Aza/veh), FGFR1OP (ProbeSet 11751329_s_at) / Fold change (ACY-1035/veh), FGFR1OP (ProbeSet 11751329_s_at) / Fold change (Aza/veh), VPS36 (ProbeSet 11739960_a_at) / Fold change (ACY-1035/veh), VPS36 (ProbeSet 11739960_a_at) / RFU SYPL1 (11715823_x_at) / Fold change /veh SYPL1 (11715823_x_at) / RFU IGFBP7 (11715501_s_at) / Fold change /veh IGFBP7 (11715501_s_at) / RFU REEP3 (11722064_at) / Fold change /veh REEP3 (11722064_at) / RFU IGLL1 (11728026_x_at) / Fold change /veh IGLL1 (11728026_x_at): dose or concentration left out as unconfirmed. Conditions: ProbeSet 11725100_s_at; LIST B.

For the molecule `Nc1ncn([C@@H]2O[C@H](CO)[C@@H](O)[C@H]2O)c(=O)n1` [azacitidine], the “RFU, ESF1” value came out at 107.31 RFU.

(Values after paper PMC5218480 (PLoS ONE, 2017).)
